Reference: patent publication US20080014133A1, “Extraction Of Radionuclides By Crown Ether-Containing Extractants” (priority 2004, published 2008)

Assays:
Type in all cases: physicochemical
[1] = Influence of nitric acid concentration on extraction of sodium; conditions: crown ether about 0.1 mol/l in Fluoroheptanol n3
Method: Selected for study were extractants containing crown ethers: DB18C6, DTBDB18C6, DCH18C6 or DB21C7 in a concentration of about 0.1 mol/l in Fluoroheptanol n3. Used as experimental solutions were aqueous solutions of sodium nitrate whose concentration was determined using radiometric techniques on previously added aliquot of a sodium-22 isotope.

[2] = Solubility of crown ethers in water and nitric acid from extractants with different organic solvents
Method: The study of solubility of extractants according to the invention and the extractants containing similar crown ethers in other solvents in aqueous and nitrate solutions was carried out.
Taken for the tests were crown ethers containing DCH18C6 or DB21C7 in a concentration of about 0.1 mole/l in different organic solvents. The extractants were mixed with aqueous or nitrate solutions with a content of nitric acid 3 mole/l in a closed thermostatically controlled chamber for 3 hours. Then the obtained water-organic systems were separated. The aqueous part after settling down and filtering was analyzed for a content of crown ethers using photometric measurements.

[3] = Extraction of cations of different metals (Table 8); conditions: for Distribution ratios, Pb: initial 0.05 g/l; for Distribution ratios, Mn: initial 0.4 g/l; for Distribution ratios, Ru: initial 0.75 g/l; for Distribution ratios, Ba / Distribution ratios, Cr / Distribution ratios, Cs / Distribution ratios, Sr / Distribution ratios, Zr: initial 1.0 g/l; for Distribution ratios, Ba / Distribution ratios, Al: crown ether 0.05 mol/l in Fluoroheptanol n3 80% / synthanol 20%, nitric acid about 190 g/l; for Distribution ratios, Ca: initial 2.0 g/l; for Distribution ratios, Ni: initial 4.0 g/l; for Distribution ratios, Al: initial 6.0 g/l; for Distribution ratios, Fe / Distribution ratios, Na: initial 10.0 g/l; for Distribution ratios, Rare-earth: initial 25.0 g/l
Text: A process of extraction of cations of different metals from aqueous nitrate solutions was studied by processing them using the extractants according to the invention containing DCH18C6 or DB21C7 in an organic solvent comprising: Fluoroheptanol n3—80% by volume and synthanol—20% by volume at a concentration of crown ethers of 0.05 mol/l and a content of nitric acid about of 190 g/l. For comparison, the data were used given in a patent specification (U.S. Pat. No. 4,749,518, A) describing similar tests of extractants containing Crown XVI or Crown XVII with a cation exchanger—dinanylnaphthalene sulfonic acid in a matrix solution containing tributyl phosphate and kerosene.
The solutions were contacted with the extractants according to the invention in temperature-controlled ([…]) separating funnels for 5 minutes at a ratio of organic and aqueous phases of 1:1. After settling within 60 minutes, the phases were separated, and the aqueous phase was analyzed to determine the concentration of the elements.

[4] = Interaction of extractants with sodium (organic/aqueous phase concentration)
Method: The characteristics of the extractants according to the invention in the process of extraction of sodium from acidic aqueous solutions of high-level waste were determined. For this purpose, the concentration of sodium in the organic and aqueous phases containing extractants based on DTBDB18C6 or DCH18C6 or DB21C7 in a concentration about of 0.05 mol/l in fluoroheptanol n3 were analyzed.

[5] = Radiation resistance of the extractants (gamma irradiation)
Text: The radiation resistance of the extractants according to the invention used for extraction radionuclides of strontium or cesium was studied. For this purpose, reaction mixtures consisting of biphase water-organic systems containing extractants based on crown ethers DCH18C6 or DB21C7 in Fluoroheptanol n3 and aqueous nitrate waste solutions, and, for comparison, reaction mixtures containing extractants based on crown ethers Crown XVI or Crown XVII with a cation exchanger—dinanylnaphthalene of sulfonic acids in a matrix solution comprising tributyl phosphate and kerosene were irradiated with gamma-rays […] in a temperature-controlled cell of stainless steel with continuous agitation by bubbling. The maximum integrated radiation dose was equal to 285.3 kGr. The extractant samples were tested and the extraction characteristics were measured before and after the irradiation to determine a decrease of the distribution ratio DMe due to the radiological destruction of extractant components.

[6] = Extraction of strontium in a dynamic countercurrent mode (7.1)
Text: A starting aqueous solution whose composition and concentration of the components are given in Table 3 for a solution No.1 was contacted with the extractant according to the invention containing 0.05 mole/l of DCH18C6 in a solvent containing 20% by volume of synthanol and 80% by volume of Fluoroheptanol n3 in a continuous countercurrent process on a facility with extractors such as “mixer-settler” devices with impulse agitation and phase transportation. The extraction included eight steps of extraction, two washing steps, eight re-extraction steps and two steps of regeneration of the reused extractant.
When running the facility, radiometric monitoring devices were used to control the concentration of strontium in the refined products, re-extracts and reclaims, as well as the concentration of the crown ethers in the extracted products.

[7] = Distribution ratio of strontium extracted in organic solutions of crown ethers (Table 1); conditions: crown ether 0.1 mole/l in Fluoroheptanol n3; Sr and Cs 1 g/l, nitric acid about 3.0 mol/l
Method: Study was carried out for determining the distribution ratios of radionuclides, for example, strontium or cesium to be extracted by the extractants according to the invention containing various crown ethers as a complexing agent: bis(tert-butylbenzo)-18-crown-6 (subsequently referred to as DTBDB18C6), di-isooctylbenzo-18-crown-6 (subsequently referred to as DIODB18C6), bis(tert-butylcyclohexane-18-crown-6 (subsequently referred to as DTBDCH18C6), di-isooxyldicyclohexane-18-crown-6 (subsequently referred to as DIODCH18C6), bicyclohexane-18-crown-6 (subsequently referred to as DCH18C6) or dibenzo-21-crown-7 (subsequently referred to as DB21C7), in an organic solvent according to the invention: polyfluorinated telomeric alcohol 1,1,7-trihydrododecafluoroheptanol-1 (subsequently referred to as fluoroheptanol n3).
For comparison, the distribution ratios of strontium and cesium were determined using extractants containing similar crown ethers in another organic solvent (decane).
Taken for the tests were experimental aqueous nitrate solutions containing strontium and cesium in a concentration of 1 g/l with a content of nitric acid of about 3.0 mol/l.

[8] = solvent 2,2-dihydrotrifluoroethyl pentafluoroethyl ether, H2O
[9] = solvent 2,2-dihydrotrifluoroethyl pentafluoroethyl ether, HNO3 3 mole/l
[10] = solvent Fluoroheptanol n3, HNO3 3 mole/l
[11] = solvent Tetrachloroethane, HNO3 3 mole/l, crown ether about 0.1 mole/l, 3 hours
[12] = solvent Trichlorethylene, HNO3 3 mole/l
[13] = solvent Trichlorobenzene, HNO3 3 mole/l
[14] = sodium in the aqueous phase 0.01 mol/l, crown ether about 0.05 mol/l in fluoroheptanol n3
[15] = sodium in the aqueous phase 0.1 mol/l, crown ether about 0.05 mol/l
[16] = sodium in the aqueous phase 0.2 mol/l, crown ether about 0.05 mol/l
[17] = sodium in the aqueous phase 0.4 mol/l, crown ether about 0.05 mol/l

With `c1ccc2c(c1)OCCOCCOCCOc1ccccc1OCCOCCO2` [DB21C7, dibenzo-21-crown-7] the “Distribution ratios of sodium” value ([1]; nitric acid 0 mol/l) was 0, the “Distribution ratios of sodium” value ([1]; nitric acid 0.1 mol/l) was 0 and the “Distribution ratios of sodium” value ([1]; nitric acid 0.5 mol/l) was 0.005. The “Distribution ratios of sodium” value ([1]; nitric acid 1.0 mol/l) was 0.01, the “Distribution ratios of sodium” value ([1]; nitric acid 3.0 mol/l) was 0.1 and the “Distribution ratios of sodium” value ([1]; nitric acid 5.0 mol/l) was 0.12. The “Concentration of crown ether in an aqueous phase” value (“Concentration of crown ether” for short) [2, 8] was 0.071 mol/l × 10^−3, the “Concentration of crown ether” value [2, 9] was 0.112 mol/l × 10^−3 and the “Concentration of crown ether” value ([2]; solvent Fluoroheptanol n3, H2O) was under 0.025 mol/l × 10^−3. The “Concentration of crown ether” value [2, 10] was 0.068 mol/l × 10^−3, the “Concentration of crown ether” value ([2]; solvent Tetrachloroethane, H2O) was 0.173 mol/l × 10^−3 and the “Concentration of crown ether” value [2, 11] was 0.159 mol/l × 10^−3. For the same molecule, the Remarks ([2]; solvent Tetrachloropropane) was “Insoluble”, the “Concentration of crown ether” value ([2]; solvent Trichlorethylene, H2O) was 0.188 mol/l × 10^−3 and the “Concentration of crown ether” value [2, 12] was 0.218 mol/l × 10^−3. For the same molecule, the “Concentration of crown ether” value ([2]; solvent Trichlorobenzene, H2O) was 0.168 mol/l × 10^−3, the “Concentration of crown ether” value [2, 13] was 0.173 mol/l × 10^−3 and the “Distribution ratios, Pb” value ([3]; same extractant conditions) was 0.02. For the same molecule, the “Distribution ratios, Rb” value ([3]; initial 0.12 g/l, same extractant conditions) was 0.02, the “Distribution ratios, Pd” value ([3]; initial 0.3 g/l, same extractant conditions) was 0.03 and the “Distribution ratios, Mn” value ([3]; same extractant conditions) was 0.04. The “Distribution ratios, Ru” value ([3]; same extractant conditions) was 0.004, the “Distribution ratios, Ba” value [3] was 1.02 and the “Distribution ratios, Cr” value ([3]; same extractant conditions) was 0.02. For the same molecule, the “Distribution ratios, Cs” value ([3]; same extractant conditions) was 1.8, the “Distribution ratios, Sr” value ([3]; same extractant conditions) was 0.02 and the “Distribution ratios, Zr” value ([3]; same extractant conditions) was 0.038. The “Distribution ratios, Ca” value ([3]; same extractant conditions) was 0.02, the “Distribution ratios, Ni” value ([3]; same extractant conditions) was 0.03 and the “Distribution ratios, Al” value [3] was 0.02. The “Distribution ratios, Fe” value ([3]; same extractant conditions) was 0.014, the “Distribution ratios, Na” value ([3]; same extractant conditions) was 0.047 and the “Distribution ratios, Rare-earth” value ([3]; same extractant conditions) was 0.04. For the same molecule, the “Sodium concentration in the organic phase” value (from here on “Sodium concentration”) [4, 14] was 0 mol/L, the “Sodium concentration” value [4, 15] was 0.01 mol/L and the “Sodium concentration” value [4, 16] was 0.018 mol/L. The “Sodium concentration” value [4, 17] was 0.035 mol/L, the “Distribution ratio before irradiation” value ([5]; Cs) was 2.83 and the “Distribution ratio DMe after irradiation” value ([5]; Cs, dose 100.0 kGr (10^7 rad)) was 2.83. The “Distribution ratio after irradiation, % of original” value (“Distribution ratio … % of original” for short) ([5]; Cs, dose 100.0 kGr (10^7 rad)) was 100.0%, the “Distribution ratio DMe after irradiation” value ([5]; Cs, dose 285.3 kGr) was 2.65 and the “Distribution ratio … % of original” value ([5]; Cs, dose 285.3 kGr) was 93.8%.
With `C1CCC2OCCOCCOC3CCCCC3OCCOCCOC2C1` (centres unmarked) [DCH18C6, bicyclohexane-18-crown-6] the “Contents of strontium in the extracted products, in percent of the feedstock” value (shortened to “Contents … in percent of the feedstock”) ([6]; Re-extract) was 99.55% of the feedstock, the “Contents … in percent of the feedstock” value ([6]; Reclaim) was <0.1% of the feedstock and the “Contents … in percent of the feedstock” value ([6]; Refined product, 0.05 mol/l DCH18C6, Synthanol 20% / Fluoroheptanol n3 80%, solution No.1) was 0.35% of the feedstock. For the same molecule, the Average concentrating factor ([6]; dynamic mode 7.1) was “about 1.7 times”, the “Efficiency of the extraction of strontium” value ([6]; dynamic mode 7.1) was “exceeds 99%” and the “Distribution ratios of sodium” value ([1]; nitric acid 0 mol/l) was 0.1. For the same molecule, the “Distribution ratios of sodium” value ([1]; nitric acid 0.1 mol/l) was 0.12, the “Distribution ratios of sodium” value ([1]; nitric acid 0.5 mol/l) was 0.12 and the “Distribution ratios of sodium” value ([1]; nitric acid 1.0 mol/l) was 0.05. The “Distribution ratios of sodium” value ([1]; nitric acid 3.0 mol/l) was 0.02, the “Distribution ratios of sodium” value ([1]; nitric acid 5.0 mol/l) was 0.01 and the “Concentration of crown ether” value [2, 8] was 0.301 mol/l × 10^−3. The “Concentration of crown ether” value [2, 9] was 0.344 mol/l × 10^−3, the “Concentration of crown ether” value ([2]; solvent Fluoroheptanol n3, H2O) was under 0.027 mol/l × 10^−3 and the “Concentration of crown ether” value [2, 10] was 0.086 mol/l × 10^−3. For the same molecule, the “Concentration of crown ether” value ([2]; solvent Tetrachloroethane, H2O) was 0.258 mol/l × 10^−3, the “Concentration of crown ether” value [2, 11] was 0.139 mol/l × 10^−3 and the “Concentration of crown ether” value ([2]; solvent Tetrachloropropane, H2O) was 0.968 mol/l × 10^−3. For the same molecule, the “Concentration of crown ether” value ([2]; solvent Tetrachloropropane, HNO3 3 mole/l) was 1.72 mol/l × 10^−3, the “Concentration of crown ether” value ([2]; solvent Trichlorethylene, H2O) was 0.65 mol/l × 10^−3 and the “Concentration of crown ether” value [2, 12] was 0.94 mol/l × 10^−3. For the same molecule, the “Concentration of crown ether” value ([2]; solvent Trichlorobenzene, H2O) was 1.142 mol/l × 10^−3, the “Concentration of crown ether” value [2, 13] was 2.016 mol/l × 10^−3 and the “Distribution ratio Strontium” value [7] was 1.6. The “Distribution ratios, Pb” value ([3]; same extractant conditions) was 4.2, the “Distribution ratios, Mn” value ([3]; same extractant conditions) was 0.06 and the “Distribution ratios, Ru” value ([3]; same extractant conditions) was 0.16. For the same molecule, the “Distribution ratios, Ba” value [3] was 2.03, the “Distribution ratios, Cr” value ([3]; same extractant conditions) was 0.02 and the “Distribution ratios, Cs” value ([3]; same extractant conditions) was 0.02. For the same molecule, the “Distribution ratios, Sr” value ([3]; same extractant conditions) was 3.6, the “Distribution ratios, Zr” value ([3]; same extractant conditions) was 0.018 and the “Distribution ratios, Ca” value ([3]; same extractant conditions) was 0.12. The “Distribution ratios, Ni” value ([3]; same extractant conditions) was 0.023, the “Distribution ratios, Al” value [3] was 0.03 and the “Distribution ratios, Fe” value ([3]; same extractant conditions) was 0.017. The “Distribution ratios, Na” value ([3]; same extractant conditions) was 0.01, the “Distribution ratios, Rare-earth” value ([3]; same extractant conditions) was 0.04 and the “Sodium concentration” value [4, 14] was 0 mol/L. For the same molecule, the “Sodium concentration” value [4, 15] was 0.003 mol/L, the “Sodium concentration” value [4, 16] was 0.005 mol/L and the “Sodium concentration” value [4, 17] was 0.009 mol/L. For the same molecule, the “Distribution ratio before irradiation” value ([5]; Sr) was 3.6, the “Distribution ratio DMe after irradiation” value ([5]; Sr, dose 100.0 kGr (10^7 rad)) was 3.4 and the “Distribution ratio … % of original” value ([5]; Sr, dose 100.0 kGr (10^7 rad)) was 94.4%. For the same molecule, the “Distribution ratio DMe after irradiation” value ([5]; Sr, dose 285.3 kGr) was 3.0 and the “Distribution ratio … % of original” value ([5]; Sr, dose 285.3 kGr) was 83.3%.
